Measured values as given in ChEMBL document CHEMBL1129998, “Pharmacological options in the treatment of benign prostatic hyperplasia” (J Med Chem, 1997).

Legend:
[1] = Dose (iv) for 20% reduction of mean blood pressure in rat (ID20) with the dose for 50% inhibition of norepinephrine-mediated contraction of proximal urethra (ID50) in cat; format: functional
[2] = Inhibitory concentration on human 5-alpha reductase isozyme
[3] = Apparent binding affinity on human 5-alpha reductase isozyme
[4] = target: T1, Steroid 5-alpha-reductase (Rattus norvegicus, UniProt P24008+P31214); test: Inhibition of rat 5-alpha reductase isozyme.; format: protein assay
T1 sequence (P24008 whole entry): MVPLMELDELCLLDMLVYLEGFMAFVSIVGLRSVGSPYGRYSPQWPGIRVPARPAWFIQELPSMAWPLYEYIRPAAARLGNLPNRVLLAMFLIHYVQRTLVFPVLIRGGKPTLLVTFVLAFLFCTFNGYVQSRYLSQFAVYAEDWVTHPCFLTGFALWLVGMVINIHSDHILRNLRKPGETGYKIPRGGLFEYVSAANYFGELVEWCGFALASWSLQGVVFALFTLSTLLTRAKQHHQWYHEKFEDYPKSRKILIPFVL
T1 sequence (P31214 whole entry): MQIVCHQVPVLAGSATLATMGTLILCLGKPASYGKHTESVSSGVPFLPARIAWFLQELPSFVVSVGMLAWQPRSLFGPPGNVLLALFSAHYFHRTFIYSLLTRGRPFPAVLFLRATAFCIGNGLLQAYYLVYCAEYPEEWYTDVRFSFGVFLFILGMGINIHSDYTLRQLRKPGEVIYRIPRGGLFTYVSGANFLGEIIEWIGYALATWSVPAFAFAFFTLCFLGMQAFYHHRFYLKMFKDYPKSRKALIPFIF

[5] = target: T1, Steroid 5-alpha-reductase; test: Apparent binding affinity on rat 5-alpha reductase isozyme; format: protein assay
[6] = target: T2, Alpha-1D adrenergic receptor (Homo sapiens, UniProt P25100); test: Binding affinity was tested on human Alpha-1D adrenergic receptor
T2 sequence (P25100 whole entry): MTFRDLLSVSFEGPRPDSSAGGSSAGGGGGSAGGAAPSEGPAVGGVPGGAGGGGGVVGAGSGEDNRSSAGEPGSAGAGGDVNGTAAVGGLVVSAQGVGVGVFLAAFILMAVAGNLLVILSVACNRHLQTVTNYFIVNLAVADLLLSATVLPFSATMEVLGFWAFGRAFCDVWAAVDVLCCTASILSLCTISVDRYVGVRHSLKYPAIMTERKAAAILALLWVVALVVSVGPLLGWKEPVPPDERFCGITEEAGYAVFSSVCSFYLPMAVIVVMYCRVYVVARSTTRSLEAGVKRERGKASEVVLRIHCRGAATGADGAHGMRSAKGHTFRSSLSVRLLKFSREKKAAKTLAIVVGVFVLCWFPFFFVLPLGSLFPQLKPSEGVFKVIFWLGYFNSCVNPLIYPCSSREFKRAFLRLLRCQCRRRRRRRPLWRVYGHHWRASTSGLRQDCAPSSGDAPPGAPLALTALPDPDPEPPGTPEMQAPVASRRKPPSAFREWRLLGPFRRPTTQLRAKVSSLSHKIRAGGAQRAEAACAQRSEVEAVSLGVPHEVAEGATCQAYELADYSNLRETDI

[7] = target: T3, Adrenergic receptor alpha-1 (Homo sapiens, UniProt P35348+P25100+P35368); test: pA2 for Alpha-1 adrenergic receptor from human prostate.; format: tissue-based, Prostate gland
T3 sequence (P35348 whole entry): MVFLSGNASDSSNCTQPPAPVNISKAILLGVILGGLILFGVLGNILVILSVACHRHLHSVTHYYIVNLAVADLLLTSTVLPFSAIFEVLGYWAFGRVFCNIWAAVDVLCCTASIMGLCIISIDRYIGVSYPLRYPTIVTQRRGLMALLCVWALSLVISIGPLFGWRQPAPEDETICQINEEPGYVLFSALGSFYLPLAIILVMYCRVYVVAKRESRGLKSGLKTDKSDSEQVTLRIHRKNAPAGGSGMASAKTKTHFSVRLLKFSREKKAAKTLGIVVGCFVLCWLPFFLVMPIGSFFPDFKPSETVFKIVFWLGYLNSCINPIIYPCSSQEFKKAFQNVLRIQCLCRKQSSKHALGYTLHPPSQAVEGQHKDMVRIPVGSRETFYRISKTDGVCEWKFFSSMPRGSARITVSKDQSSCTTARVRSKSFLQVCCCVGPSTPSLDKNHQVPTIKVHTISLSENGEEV
T3 sequence (P25100 whole entry): T2 sequence (P25100 whole entry)
T3 sequence (P35368 whole entry): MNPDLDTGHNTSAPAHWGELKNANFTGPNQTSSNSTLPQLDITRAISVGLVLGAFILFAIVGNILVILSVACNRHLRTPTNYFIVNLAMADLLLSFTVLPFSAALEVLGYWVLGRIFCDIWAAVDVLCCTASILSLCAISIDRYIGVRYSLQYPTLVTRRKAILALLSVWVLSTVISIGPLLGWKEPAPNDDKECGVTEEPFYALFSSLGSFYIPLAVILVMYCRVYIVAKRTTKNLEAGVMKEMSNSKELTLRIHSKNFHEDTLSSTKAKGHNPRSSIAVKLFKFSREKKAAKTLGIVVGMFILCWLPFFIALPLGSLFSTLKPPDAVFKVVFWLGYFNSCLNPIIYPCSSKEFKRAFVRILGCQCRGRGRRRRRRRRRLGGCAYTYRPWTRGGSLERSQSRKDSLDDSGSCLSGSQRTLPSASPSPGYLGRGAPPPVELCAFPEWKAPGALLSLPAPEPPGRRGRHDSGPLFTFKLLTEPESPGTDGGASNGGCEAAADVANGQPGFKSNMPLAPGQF

[8] = target: T4, Alpha-1A adrenergic receptor (Homo sapiens, UniProt P35348); test: Binding affinity was tested on human Alpha-1A adrenergic receptor
T4 sequence (P35348 whole entry): T3 sequence (P35348 whole entry)

[9] = target: T5, Alpha-1B adrenergic receptor (Homo sapiens, UniProt P35368); test: Binding affinity was tested on human Alpha-1B adrenergic receptor
T5 sequence (P35368 whole entry): T3 sequence (P35368 whole entry)

[10] = target: T6, Alpha-1A adrenergic receptor (Rattus norvegicus, UniProt P43140); test: Binding affinity was tested on CEC-pretreated rat hippocampus Alpha-1A adrenergic receptor; format: tissue-based
T6 sequence (P43140 whole entry): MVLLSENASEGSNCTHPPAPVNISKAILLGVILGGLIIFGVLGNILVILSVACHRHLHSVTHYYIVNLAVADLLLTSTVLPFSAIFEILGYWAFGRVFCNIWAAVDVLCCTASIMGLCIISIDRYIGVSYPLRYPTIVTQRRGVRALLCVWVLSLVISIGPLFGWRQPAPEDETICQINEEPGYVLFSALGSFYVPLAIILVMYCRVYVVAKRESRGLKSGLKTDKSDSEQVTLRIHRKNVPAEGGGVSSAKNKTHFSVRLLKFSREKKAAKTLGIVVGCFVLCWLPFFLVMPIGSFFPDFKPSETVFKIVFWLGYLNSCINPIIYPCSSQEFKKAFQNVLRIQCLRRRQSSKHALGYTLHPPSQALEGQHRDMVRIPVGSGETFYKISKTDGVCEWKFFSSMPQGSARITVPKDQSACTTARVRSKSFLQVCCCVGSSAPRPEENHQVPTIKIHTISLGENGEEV

[11] = target: T7, Alpha-1B adrenergic receptor (Rattus norvegicus, UniProt P15823); test: Binding affinity was tested on CEC-pretreated rat liver Alpha-1B adrenergic receptor
T7 sequence (P15823 whole entry): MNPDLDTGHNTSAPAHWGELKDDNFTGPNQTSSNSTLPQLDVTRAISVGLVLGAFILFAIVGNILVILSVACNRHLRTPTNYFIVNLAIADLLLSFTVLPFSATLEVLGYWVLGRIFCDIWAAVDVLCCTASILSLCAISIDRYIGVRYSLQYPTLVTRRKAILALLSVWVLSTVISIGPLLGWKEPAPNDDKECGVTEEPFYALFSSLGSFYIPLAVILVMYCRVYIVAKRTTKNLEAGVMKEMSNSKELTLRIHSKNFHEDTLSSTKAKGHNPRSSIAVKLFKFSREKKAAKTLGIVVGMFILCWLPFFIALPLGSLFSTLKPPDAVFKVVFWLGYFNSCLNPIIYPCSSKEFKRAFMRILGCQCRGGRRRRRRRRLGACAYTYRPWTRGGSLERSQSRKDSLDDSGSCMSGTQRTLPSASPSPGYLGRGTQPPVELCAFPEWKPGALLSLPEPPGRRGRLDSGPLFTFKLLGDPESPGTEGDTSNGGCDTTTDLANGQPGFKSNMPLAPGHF

[12] = target: T8, 3-oxo-5-alpha-steroid 4-dehydrogenase 2 (Homo sapiens, UniProt P31213); test: Inhibitory concentration on human prostatic 5-alpha reductase 2 isozyme
T8 sequence (P31213 whole entry): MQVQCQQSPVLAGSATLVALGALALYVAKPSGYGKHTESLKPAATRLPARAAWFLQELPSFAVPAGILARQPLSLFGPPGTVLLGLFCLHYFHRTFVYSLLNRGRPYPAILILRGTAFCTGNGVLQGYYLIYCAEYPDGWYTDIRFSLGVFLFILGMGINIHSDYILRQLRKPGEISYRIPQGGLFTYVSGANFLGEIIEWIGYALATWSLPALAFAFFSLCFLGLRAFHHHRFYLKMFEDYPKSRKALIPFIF

[13] = system: Canis familiaris; test: 50% reduction in agonist induced pressor response in anesthetized dog; format: functional; conditions: Canis lupus familiaris; read-out: ID50 (the source's name)
[14] = system: Canis familiaris; test: 50% reduction in intraurethral pressure (IUP) in response to hypogastric nerve stimulation or agonist (phenylephrine or norepinephrine) administration in anesthetized dog; format: functional; conditions: Canis lupus familiaris; read-out: ID50 (the source's name)

## NC(=O)c1ccnc(NCCCN2CCN(c3ccccc3C3CC3)CC2)n1
[1]
  Ratio: 4

## CC(C)N(C(=O)[C@H]1CC[C@H]2[C@@H]3CCC4C=C(C(=O)O)CC[C@]4(C)[C@H]3CC[C@]12C)C(C)C (stereo not given in full)
[2]
  IC50: 30 nM
[3]
  Ki: 30 nM
[4]
  IC50: 70 nM
[5]
  Ki: 70 nM

## O=C(NC1CCN(CCc2c[nH]c3ccccc23)CC1)c1ccccc1 [INDORAMIN]
[6]
  Ki: 158 nM
[7]
  pA2: 8.7
[8]
  Ki: 3.98 nM
[9]
  Ki: 39.8 nM

## COc1ccccc1N1CCN(CCCNc2c(C)c(=O)n(C)c(=O)n2C)CC1
[6]
  Ki: 10 nM
[7]
  pA2: 8.2
[8]
  Ki: 0.631 nM
[9]
  Ki: 39.8 nM

## Cc1c(-c2ccccc2)oc2c(C(=O)NCCCN3CCN(c4ccccc4OC(C)C)CC3)cccc2c1=O
[10]
  IC50: 1 nM
[11]
  IC50: 108 nM

## CC(C)N(C(=O)[C@H]1CCC2C3CC=C4C=C([PH](=O)O)CC[C@]4(C)C3CC[C@@]21C)C(C)C (stereo not given in full)
[3]
  Ki: 7 nM
[5]
  Ki: 160 nM

## Cc1ccc(Cl)cc1N1CCN(CCCNC(=O)c2cccc3c(=O)c(C)c(-c4ccccc4)oc23)CC1
[10]
  IC50: 1 nM
[11]
  IC50: 29 nM

## CN1C(=O)CC[C@]2(C)C3CC[C@@]4(C)C(CC[C@@H]4C(=O)N(C(=O)NC(C)(C)C)C(C)(C)C)C3CCC12 (stereo not given in full)
[12]
  IC50: 212 nM

## CC(C)NC(=O)N(C(=O)[C@H]1CCC2C3CCC4NC(=O)C=C[C@]4(C)C3CC[C@@]21C)C(C)C (stereo not given in full)
[12]
  IC50: 1550 nM

## COc1ccccc1N1CCN(CCCNC(=O)c2cccc3c(=O)c(C)c(-c4ccccc4)oc23)CC1 [UPIDOSIN]
[10]
  IC50: 2 nM
[11]
  IC50: 24 nM
[13]
  ED50: 0.109 mg/kg
[14]
  ED50: 0.004 mg/kg

## CC(C)N(C(=O)[C@H]1CCC2C3C=CC4=CC(C(=O)O)=CC[C@]4(C)C3CC[C@@]21C)C(C)C (stereo not given in full)
[2]
  IC50: 12 nM
[4]
  IC50: 300 nM

## CC(C)NC(=O)N(C(=O)[C@H]1CCC2C3CCC4NC(=O)CC[C@]4(C)C3CC[C@@]21C)C(C)C (stereo not given in full)
[12]
  IC50: 381 nM

## CC(C)N(C(=O)[C@H]1CCC2C3CC=C4C=C(CO)CC[C@]4(C)C3CC[C@@]21C)C(C)C (stereo not given in full)
[3]
  Ki: 4200 nM
[5]
  Ki: 5300 nM
